From article PMC12589546, “A plastid carbohydrate carrier mediates ribose recycling from nucleotide catabolism and glucose export from starch degradation” (Nature Communications, 2025)

Molecular target: T1, At-pGlcT (At-pGlcTNTD) (Arabidopsis thaliana, UniProt B9DGP1)
T1 construct: gene At5g16150; plastid transit peptide (residues 1-82) replaced by E. coli PhoR residues 1-54 (membrane-targeting NTD); C-terminal 6xHis tag kept; expressed in E. coli sugar-uptake mutants, intact-cell uptake
T1 sequence (B9DGP1 83-546): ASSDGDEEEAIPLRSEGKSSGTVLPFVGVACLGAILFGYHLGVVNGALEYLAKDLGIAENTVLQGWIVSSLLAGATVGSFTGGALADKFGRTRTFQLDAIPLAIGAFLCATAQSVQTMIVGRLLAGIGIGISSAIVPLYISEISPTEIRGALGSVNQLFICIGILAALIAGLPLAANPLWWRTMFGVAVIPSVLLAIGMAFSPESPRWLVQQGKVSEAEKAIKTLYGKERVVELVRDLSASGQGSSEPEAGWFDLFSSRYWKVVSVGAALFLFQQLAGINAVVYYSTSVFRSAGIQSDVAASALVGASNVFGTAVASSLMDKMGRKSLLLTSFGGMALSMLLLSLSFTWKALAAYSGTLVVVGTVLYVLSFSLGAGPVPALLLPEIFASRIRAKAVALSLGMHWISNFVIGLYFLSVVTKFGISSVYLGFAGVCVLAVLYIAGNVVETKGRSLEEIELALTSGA
Assay: competition with […]-ribose uptake in E. coli ΔrbsC ΔxylH ΔalsC
Type: cell-based
Conditions: 1 mM 14C-ribose, 10 mM unlabelled sugar, pH 7, 37 °C, 30 min, competitive

Structure (SMILES) | inhibition of 14C-ribose uptake at 10 mM (3H-fructose uptake also measured) | inhibition of 14C-ribose uptake at 10 mM (14C-glucose uptake also measured)
OCC1(O)OC[C@@H](O)[C@@H](O)[C@@H]1O (some centres unmarked) [fructose] | its presence also reduced the uptake of the radioactively labeled ribose | 
OC[C@H]1OC(O)[C@H](O)[C@@H](O)[C@@H]1O (some centres unmarked) [glucose] |  | but also glucose was an equally efficient suppressor
